Data published in PMC8140105 (Scientific Reports, 2021).

Assays:
SH-SY5Y neuroblast cells = test: MTT assay on SH-SY5Y neuroblast cells; format: cell-based; settings: n = 6
Method: SH-SY5Y neuroblast cells (Sigma-Aldrich, Diegem, Belgium) were grown in F12:MEM (50/50 v/v) medium supplemented with 15% FBS, 1% non-essential amino acids (NEAA), 2 mM L-Glutamine and 1% penicillin/streptomycin solution (Life Technologies, Belgium) in an incubator set at 37 °C and 5% CO2. When confluent, cells were detached using 0.25% Trypsin–EDTA.
SH-SY5Y cells were seeded at a density of 5 × 10^4 cells/well in a 96-well plate and incubated for 24 h. Next, medium was removed and replaced by 200 µL conditioned medium of BV-2 cells which were treated for 20 h with PapRIV. After 24 h incubation, 20 µL MTT reagent (12 mM) was added and incubated for 3 h. Finally, the medium was removed and replaced by 150 µL DMSO and measured at 570 nm with a microplate reader (Thermofisher, Waltham, USA).

BV-2 microglia cells [1] = test: ROS assay (fluorometric intracellular ROS kit); format: cell-based, murine; settings: BV-2 cells, 24 h treatment, fluorescence, n = 12
Method: Microglia activation is accompanied by an increased reactive oxygen species (ROS) production. The ROS assay was performed using a fluorometric intracellular ROS kit according to the supplier’s protocol (Sigma-Aldrich, Diegem, Belgium). In brief, 4 × 10^4 cells/well were seeded in a black 96-well plate. Four hours post seeding, 100 µL of master reaction mix was added to the wells and incubated for 1 h after which cells were treated with PapRIV dissolved in PBS for 24 h. Fluorescence intensity was measured using an EnVision fluorometric plate reader at λex = 492/λem = 535 nm (Perkin Elmer, Zaventem, Belgium).

BV-2 microglia cells [2] = test: IL-6 and TNFα determination (ELISA); format: cell-based, murine; settings: BV-2 cells, increasing concentrations, 20 h, ELISA of cell-free supernatant, n = 6
Method: BV-2 cells were a kind gift from Prof. Alba Minelli and were grown in RPMI medium supplemented with 10% fetal bovine serum (FBS) and 1% penicillin-streptromycin solution (Life Technologies, Belgium). The cells were cultured in culture flasks (Greiner, Belgium) in an incubator set at 37 °C and 5% CO2. When confluent, cells were detached using a cell scraper and diluted 1:20 approximately every 4 days. Experiments were performed in serum-free DMEM without phenol red.
To investigate the microglia activating properties of the peptide, IL-6 and TNFα levels were determined in cell-free supernatants of BV-2 microglia cells after treatment. BV-2 cells (2 × 10^5 cells/well) were seeded in 24-well plates and treated with peptide for 20 h. ELISA was performed according to the supplier’s protocol (eBioscience, Vienna, Austria). Briefly, after incubation with biotinylated detection antibody, avidin-HRP conjugate and subsequently chromogenic tetramethylbenzidine (TMB) substrate were added. Absorbance was measured at 450 nm and 570 nm using the Multiskan Ascent 354 microplate reader (Thermofisher, Waltham, USA). Concentrations were determined using the standard curve generated using known concentrations of TNFα and IL-6.

BV-2 cells [3] = test: qPCR of IL-6 mRNA; format: cell-based, murine; settings: 10 µM, n = 6, Mann–Whitney U test
Method: To confirm the observed ELISA results at mRNA level, a qPCR experiment was performed. After incubation of the BV-2 cells with PapRIV or controls, cells were lysed in RLT buffer (Qiagen, Hilden, Germany) supplemented with 1% β-mercaptoethanol. The lysate was stored at − 80 °C until RNA extraction. RNA was extracted using the RNeasy Mini Kit (Qiagen, Hilden, Germany). DNAse steps were included in the protocol to remove possible DNA contamination. RNA purity and concentration were assessed using spectrophotometry (NanoDrop), while RNA quality was evaluated using capillary electrophoresis (Fragment Analyzer). After extraction, the RNA was immediately converted to cDNA which was stored at − 20 °C until qPCR analysis. Ppia and Rer were chosen as suitable control genes based on the GeNorm and Normfinder algorithms[79],[80]. Used primers are given in Table 5. qPCR cycling was performed using a LightCycler 480 (Roche), with Cq values being calculated using the second derivative threshold method.

BV-2 cells [4] = test: Immunoblotting (NF-kB p65, IκBα, NIK); format: cell-based, murine
Method: To assess nuclear translocation of NF-kB, cells were lysed after 20 h using the NE-PER protocol (Thermo Scientific). Using this kit, the cytoplasmic and nuclear protein fractions are separated from each other. To asses IκBα expression, cells were lysed with RIPA buffer. Protein content of the lysates was determined using the modified Lowry assay (Thermo Scientific). Proteins (20 µg) were separated using an Any kD gel (SDS-PAGE) and transferred to a nitrocellulose membrane (BioRad, Temse, Belgium). Aspecific binding sites were blocked for 30 min using TBS + 1% casein (BioRad, Temse, Belgium). Western blot was performed using the following primary polyclonal antibodies overnight (4 °C): anti-p65 NFkB (1/500), anti-IκBα (1/1000) and anti-β-actin (1/1000), β-tubulin (1/4000) and anti-Histon H3.3 (1/5000) were used as loading controls. Goat anti-rabbit-AP antibody was used for detection (1/10,000) (60 min). All antibodies were purchased at Thermo Scientific (Merelbeke, Belgium). Finally, the BCIP/NBT substrate was added and the results were analyzed using the GelDoc EZ imager and Image Lab software (BioRad, Temse, Belgium). TBS buffer was used for washing between the steps.

BV-2 microglia cells [5] = test: MTT viability of BV-2 microglia cells; format: cell-based, murine

## SDLPFEH [PapRIV, heptapeptide (SDLPFEH) quorum sensing peptide originating from the Bacillus cereus group; synthetic, purchased from GL Biochem]
SH-SY5Y neuroblast cells; BV-2 treated 20 h, conditioned medium on SH-SY5Y 24 h
  viability of SH-SY5Y cells with conditioned medium of treated BV-2 cells: significant decreased viability
SH-SY5Y neuroblast cells; direct peptide treatment
  toxicity of direct treatment of SH-SY5Y cells: no significant toxic effects
BV-2 microglia cells [1]
  intracellular ROS: increase
BV-2 microglia cells [2]
  IL-6 production: induced
  TNFα production: induced
BV-2 cells [3]
  IL-6 mRNA expression: increased
BV-2 cells [4]; 20 h, n = 3
  NF-kB nuclear translocation: increased
BV-2 cells [4]; data not shown
  NIK expression: not observed
BV-2 cells [4]; n = 3
  IκBα levels: decreasing
BV-2 microglia cells [5]; 25 µM treatment, non-significant decrease
  viability of BV-2 microglia cells: 94.8%
BV-2 microglia cells [5]; MTT, up to 25 µM
  toxic effects towards BV-2 microglia cells: no significant toxic effects
